In US20140080114A1, “METHODS, KITS AND COMPOSITIONS FOR INACTIVATION OF VIRAL AGENTS IN WHOLE BLOOD AND RED BLOOD CELL CONCENTRATES” (APHIOS CORPORATION, priority 2012, published 2014):

Test system: bovine viral diarrhea virus (BVDV)
Experiment: Hypericin-luciferase inactivation of BVDV spiked into human red blood cell concentrate, titration of unwashed and washed samples (CPE, TCID50)
Type: cell-based
Conditions: for Unwashed Titer / Combined VRF (Titer of unwashed RBC control − Titer of washed sample) / Unwashed VRF (Titer of RBC control − Titer of sample) / Washed Titer / Washed VRF (Titer of RBC control − Titer of sample): Table 1 (Example 1), hypericin low=40, high=200 μg/mL, luciferase low=0.8, high=4.0 μM; for Unwashed Titer: RBCC, RT 2 hours in the dark, luciferin 0.08 mM, ATP 0.8 mM
Experimental: This dose range had not been tested in the previous experiments. Ten different combinations of DMEM (—Ca++, —Mg++), RBCC, virus, hypericin, luciferin, adenosine triphosphate (ATP) and luciferase were prepared to all contain equivalent titers of BVDV calculated to be 6.48 log 10TCID50/mL (logs) based on the titer of the original virus stock. The concentrations of hypericin tested were 40, 80 and 120 μg/mL. Luciferase was tested at 0.16, 0.32 and 0.8 μM. Luciferin and ATP were present at 80 and 800 μM respectively.
The compounds were mixed and incubated at RT for 2 hours in the dark followed by titration of unwashed and washed samples as previously described. Washing rows of wells with dilutions 1 and 2 was performed 2 days post-infection. Final CPEs were read 10 days post-infection.

SMILES | Unwashed Titer | Combined VRF (Titer of unwashed RBC control − Titer of washed sample) | Unwashed VRF (Titer of RBC control − Titer of sample) | Washed Titer | Washed VRF (Titer of RBC control − Titer of sample) | optimal dose of hypericin (with different doses of luciferase, for BVDV)
Cc1cc(O)c2c(=O)c3c(O)cc(O)c4c5c(O)cc(O)c6c(=O)c7c(O)cc(C)c8c1c2c(c34)c(c78)c65 [HH-LN, hypericin] | 3.10 log10TCID50/mL | 3.87 log TCID50 | 3.25 log TCID50 | 2.48 log10TCID50/mL | 1.50 log TCID50 | 
Cc1cc(O)c2c(=O)c3c(O)cc(O)c4c5c(O)cc(O)c6c(=O)c7c(O)cc(C)c8c1c2c(c34)c(c78)c65 [HL-LN, hypericin] | 3.48 log10TCID50/mL | >4.01 log TCID50 | 2.87 log TCID50 | <2.34 log10TCID50/mL | >1.64 log TCID50 | 
Cc1cc(O)c2c(=O)c3c(O)cc(O)c4c5c(O)cc(O)c6c(=O)c7c(O)cc(C)c8c1c2c(c34)c(c78)c65 [hypericin, reference compound] |  |  |  |  |  | 40 µg/mL
